Experimental data reported in US8148395B2, “Azolopyridin-3-one derivatives as inhibitors of lipases and phospholipases” (Sanofi-Aventis, priority 2006, dated 2012).

Target: T1, endothelial lipase (EL) (Homo sapiens, UniProt Q9Y5X9)
T1 construct: EL is released as secretory protein in high concentration into cell culture medium (conditioned medium) by recombinant cell lines (CHO, HEK293); made in house; host or cells: recombinant cell lines (CHO, HEK293); concentrated conditioned medium used as enzyme solution
T1 sequence (Q9Y5X9 21-500): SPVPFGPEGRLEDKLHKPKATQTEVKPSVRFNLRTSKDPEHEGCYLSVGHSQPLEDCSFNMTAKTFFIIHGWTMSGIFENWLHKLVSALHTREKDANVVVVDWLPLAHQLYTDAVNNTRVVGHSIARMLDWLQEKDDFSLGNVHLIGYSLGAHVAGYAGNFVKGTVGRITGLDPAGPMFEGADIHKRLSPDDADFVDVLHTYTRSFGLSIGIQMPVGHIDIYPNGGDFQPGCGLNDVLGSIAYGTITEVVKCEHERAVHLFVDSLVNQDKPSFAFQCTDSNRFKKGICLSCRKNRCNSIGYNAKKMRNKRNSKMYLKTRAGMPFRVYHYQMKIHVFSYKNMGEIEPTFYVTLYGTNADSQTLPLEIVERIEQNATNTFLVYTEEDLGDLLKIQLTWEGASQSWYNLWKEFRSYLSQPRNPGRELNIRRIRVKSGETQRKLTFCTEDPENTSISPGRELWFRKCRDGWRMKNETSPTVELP
Test: EL inhibition assay (EL activity assay, fluorescent Bodipy phospholipid substrate)
Format: biochemical
Conditions: EL from conditioned medium of recombinant cell lines (CHO, HEK293); 37° C., 90 minutes; HPTLC fluorescence read-out
Description: EL is released as secretory protein in high concentration into cell culture medium (conditioned medium) by recombinant cell lines (CHO, HEK293). This was employed as enzyme solution after concentration.
The phospholipase-specific substrate 1,2-bis(4,4-difluoro-5,7-dimethyl-4-bora-3a,4a-diaza-s-indacene-3-undecanoyl)-sn-glycero-3-phosphocholine, (manufacturer Molecular Probes) was used to characterize the enzymatic activity of endothelial lipase and the effect of inhibitors. Hydrolysis of the A1 ester linkage of this phospholipid by the enzyme liberates a fatty acid labeled with the fluorescent dye Bodipy which can be detected after separation by thin-layer chromatography on an HPTLC plate (silica gel 60, Merck) or directly in the reaction vessel by measuring the fluorescence.
The substrate solution was prepared by 100 μg of 1,2-bis(4,4-difluoro-5,7-dimethyl-4-bora-3a,4a-diaza-s-indacene-3-undecanoyl)-sn-glycero-3-phospho-choline (manufacturer Molecular Probes) being dissolved in 100 μl of DMSO and taken up with 2.4 mg of tripalmitin (Sigma) in 393 μl of chloroform which contained 20 mg/ml DOP-choline (1,2-dioleoyl-sn-glycero-3-phosphocholine). 39.3 μl of this lipid mixture were transferred into a fresh reaction vessel and the solvent was evaporated. The lipid mixture was dissolved in 4 ml of 200 mM TRIS-HCl, 150 mM sodium chloride, pH=7.4, by sonication twice. The subsequent enzymic reaction took place at 37° C. for 90 minutes. For this purpose, 20 μl of the substrate solution were incubated with 2 μl of inhibitor of appropriate concentration (dissolved in 10% DMSO, using 10% DMSO solution for control) and 2 μl of enzyme solution (conditioned medium). Then 4 μl of the assay mixture were loaded onto an HPTLC plate (silica gel 60, Merck), and the liberated fluorescent dye was separated for detection with an eluent (diethyl ether:petroleum benzene:acetic acid [78:22:1]). After evaporation of the eluent, the plate was read in a fluorescence scanner. An increased liberation of the fluorescent dye in the uninhibited reaction was to be observed as a measure of the enzymic activity.
The enzymatic activity was reduced as a function of the inhibitor concentration used. The inhibitor concentration at which a half-maximum enzymatic activity is observed is called IC50.

| Compound | IC50 [µM] |
| --- | --- |
| Cc1ccccc1CNC(=O)n1c(=O)c2c(C)cc(Cl)nc2n1C [Example 2, 6-Chloro-1,4-dimethyl-3-oxo-1,3-dihydro-pyrazolo[3,4-b]pyridine-2-carboxylic acid 2-methylbenzylamide] | 0.02 |
| Cc1cc(Cl)nc2c1c(=O)n(C(=O)NCCc1cccs1)n2C [Example 4, 6-Chloro-1,4-dimethyl-3-oxo-1,3-dihydropyrazolo[3,4-b]pyridine-2-carboxylic acid (2-thiophen-2-ylethyl)amide] | 0.019 |
| Cc1cc(Cl)nc2c1c(=O)n(C(=O)NC1CCCc3ccccc31)n2C (stereo not shown) [Example 12, 6-Chloro-1,4-dimethyl-3-oxo-1,3-dihydropyrazolo[3,4-b]pyridine-2-carboxylic acid (1,2,3,4-tetrahydronaphthalen-1-yl)amide] | 0.029 |
| Cc1cc(Cl)nc2[nH]n(C(=O)N[C@@H]3CCc4ccccc43)c(=O)c12 [Example 8, 6-Chloro-4-methyl-3-oxo-1,3-dihydropyrazolo[3,4-b]pyridine-2-carboxylic acid (R)-indan-1-ylamide] | 0.091 |
| CCCCCCNC(=O)n1oc2nc(C(F)(F)F)ccc2c1=O [Example 16, 3-Oxo-6-trifluoromethyl-3H-isoxazolo[5,4-b]pyridine-2-carboxylic acid hexylamide] | 0.01 |
| CCCCCCNC(=O)n1oc2nc(C)ccc2c1=O [Example 17, 6-Methyl-3-oxo-3H-isoxazolo[5,4-b]pyridine-2-carboxylic acid hexylamide] | 0.011 |
| CCCCCCNC(=O)n1c(=O)c2c(C)cc(Cl)nc2n1CCCC [Example 10, 1-Butyl-6-chloro-4-methyl-3-oxo-1,3-dihydropyrazolo[3,4-b]pyridine-2-carboxylic acid hexylamide] | 0.001 |
| CCCCCCNC(=O)n1oc2ncccc2c1=O [Example 6, 3-Oxo-3H-isoxazolo[5,4-b]pyridine-2-carboxylic acid hexylamide] | 0.043 |
| CCCCCCNC(=O)n1c(=O)c2c(C)cc(Cl)nc2n1Cc1ccccc1 [Example 15, 1-Benzyl-6-chloro-4-methyl-3-oxo-1,3-dihydropyrazolo[3,4-b]pyridine-2-carboxylic acid hexylamide] | 0.057 |
| CCCCn1c2nc(Cl)cc(C)c2c(=O)n1C(=O)NCCc1cccs1 [Example 11, 1-Butyl-6-chloro-4-methyl-3-oxo-1,3-dihydropyrazolo[3,4-b]pyridine-2-carboxylic acid (2-thiophen-2-ylethyl)amide] | 1.23 |
| Cc1cc(Cl)nc2c1c(=O)n(C(=O)N[C@@H]1CCc3ccccc31)n2C [Example 14, 6-Chloro-1,4-dimethyl-3-oxo-1,3-dihydropyrazolo[3,4-b]pyridine-2-carboxylic acid (R)-indan-1-ylamide] | 0.008 |
| Cc1cc(Cl)nc2c1c(=O)n(C(=O)N[C@H]1CCc3ccccc31)n2C [Example 13, 6-Chloro-1,4-dimethyl-3-oxo-1,3-dihydropyrazolo[3,4-b]pyridine-2-carboxylic acid (S)-indan-1-ylamide] | 0.204 |
| Cc1cc(Cl)nc2[nH]n(C(=O)NC3CCCc4ccccc43)c(=O)c12 (stereo not shown) [Example 9, 6-Chloro-4-methyl-3-oxo-1,3-dihydropyrazolo[3,4-b]pyridine-2-carboxylic acid (1,2,3,4-tetrahydronaphthalen-1-yl)amide] | 1.21 |
